Test results taken from ChEMBL document CHEMBL1123447, “Biologically active derivatives of gossypol: synthesis and antimalarial activities of peri-acylated gossylic nitriles” (J Med Chem, 1986).

What was measured:
Plasmodium falciparum [1] = experiment: Antimalarial activity against chloroquine-resistant Plasmodium falciparum FCB/NC1; format: functional, organism-based
Plasmodium falciparum [2] = experiment: Antimalarial activity against chloroquine-sensitive Plasmodium falciparum CDC/I/HB-3; format: functional, organism-based
[3] = Compound was tested for the inhibition of LDH from a chloroquine-resistant strain (FCB/NC-1) of Plasmodium falciparum

In the case of `CCC(=O)Oc1c(-c2c(C)cc3c(C(C)C)c(O)c(O)c(C#N)c3c2OC(=O)CC)c(C)cc2c(C(C)C)c(O)c(O)c(C#N)c12`, the IC50 (Plasmodium falciparum [1]) is reported as 69 µM, the IC50 (Plasmodium falciparum [2]) is reported as 46 µM and the Ki [3] is reported as 1.1 µM.

In the case of `CC(=O)Oc1c(-c2c(C)cc3c(C(C)C)c(O)c(O)c(C#N)c3c2OC(C)=O)c(C)cc2c(C(C)C)c(O)c(O)c(C#N)c12`, the IC50 (Plasmodium falciparum [1]) is reported as 76 µM, the IC50 (Plasmodium falciparum [2]) is reported as 36 µM and the Ki [3] is reported as 0.83 µM.

`CCCCC(=O)Oc1c(-c2c(C)cc3c(C(C)C)c(O)c(O)c(C#N)c3c2OC(=O)CCCC)c(C)cc2c(C(C)C)c(O)c(O)c(C#N)c12` showed an IC50 (Plasmodium falciparum [1]) of 16 µM, an IC50 (Plasmodium falciparum [2]) of 12 µM and a Ki [3] of 0.33 µM.

Molecule `CCCC(=O)Oc1c(-c2c(C)cc3c(C(C)C)c(O)c(O)c(C#N)c3c2OC(=O)CCC)c(C)cc2c(C(C)C)c(O)c(O)c(C#N)c12` has an IC50 (Plasmodium falciparum [1]) of 26 µM, an IC50 (Plasmodium falciparum [2]) of 21 µM and a Ki [3] of 0.62 µM.

In the case of `Cc1cc2c(C(C)C)c(O)c(O)c(C=O)c2c(O)c1-c1c(C)cc2c(C(C)C)c(O)c(O)c(C=O)c2c1O` [GOSSYPOL], the IC50 (Plasmodium falciparum [1]) is reported as 13 µM and the IC50 (Plasmodium falciparum [2]) is reported as 7 µM.
